The values that follow come from patent EP4722207A1, “OXOISOINDOLINYL-SUBSTITUTED TETRAHYDROPYRIMIDINEDIONE DERIVATIVE AND USE THEREOF” (Gluetacs Therapeutics (Shanghai) Co., Ltd., priority 2023, dated 2024).

For one assay, the target named is T1, WEE1 (Homo sapiens, UniProt P30291+Q96SW2).
T1 construct: effects of the compounds of the present disclosure on the expression of target proteins in cells; endogenous in cells; host or cells: human PBMCs (hPBMCs)
The assay can be described thus: Western-blot assay, substrate protein degradation in hPBMCs: WEE1. It counts as cell-based. To be noted: compounds at 50 nM and 500 nM, 24 hours.

The next assay deals with T2, IKZF1 (Homo sapiens, UniProt Q13422+Q96SW2).
T2 construct: effects of the compounds of the present disclosure on the expression of target proteins in cells; endogenous in cells; host or cells: human PBMCs (hPBMCs)
The assay can be described thus: Western-blot assay, substrate protein degradation in hPBMCs: IKZF1. To be noted: compounds at 50 nM and 500 nM, 24 hours. It counts as cell-based.

Another assay concerns the target T3, IKZF2 (Homo sapiens, UniProt Q96SW2+Q9UKS7).
T3 construct: effects of the compounds of the present disclosure on the expression of target proteins in cells; endogenous in cells; host or cells: human PBMCs (hPBMCs)
The assay can be described thus: Western-blot assay, substrate protein degradation in hPBMCs: IKZF2. It counts as cell-based. To be noted: compounds at 50 nM and 500 nM, 24 hours.

In the next assay the target is T4, IKZF3 (Homo sapiens, UniProt Q96SW2+Q9UKT9).
T4 construct: effects of the compounds of the present disclosure on the expression of target proteins in cells; endogenous in cells; host or cells: human PBMCs (hPBMCs)
T4 sequence (Q9UKT9 whole entry): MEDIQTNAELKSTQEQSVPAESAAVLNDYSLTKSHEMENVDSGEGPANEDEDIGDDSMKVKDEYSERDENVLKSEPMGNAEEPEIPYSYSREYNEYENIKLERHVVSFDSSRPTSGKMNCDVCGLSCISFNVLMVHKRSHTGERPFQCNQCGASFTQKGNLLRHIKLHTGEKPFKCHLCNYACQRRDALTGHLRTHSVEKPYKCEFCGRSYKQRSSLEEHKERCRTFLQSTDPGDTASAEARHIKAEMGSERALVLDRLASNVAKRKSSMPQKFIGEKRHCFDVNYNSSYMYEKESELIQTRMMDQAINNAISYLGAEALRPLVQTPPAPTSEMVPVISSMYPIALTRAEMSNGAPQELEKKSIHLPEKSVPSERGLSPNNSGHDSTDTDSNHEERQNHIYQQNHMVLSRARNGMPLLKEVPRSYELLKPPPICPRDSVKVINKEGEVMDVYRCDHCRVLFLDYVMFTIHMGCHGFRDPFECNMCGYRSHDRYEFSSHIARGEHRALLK
T4 sequence (Q96SW2 whole entry): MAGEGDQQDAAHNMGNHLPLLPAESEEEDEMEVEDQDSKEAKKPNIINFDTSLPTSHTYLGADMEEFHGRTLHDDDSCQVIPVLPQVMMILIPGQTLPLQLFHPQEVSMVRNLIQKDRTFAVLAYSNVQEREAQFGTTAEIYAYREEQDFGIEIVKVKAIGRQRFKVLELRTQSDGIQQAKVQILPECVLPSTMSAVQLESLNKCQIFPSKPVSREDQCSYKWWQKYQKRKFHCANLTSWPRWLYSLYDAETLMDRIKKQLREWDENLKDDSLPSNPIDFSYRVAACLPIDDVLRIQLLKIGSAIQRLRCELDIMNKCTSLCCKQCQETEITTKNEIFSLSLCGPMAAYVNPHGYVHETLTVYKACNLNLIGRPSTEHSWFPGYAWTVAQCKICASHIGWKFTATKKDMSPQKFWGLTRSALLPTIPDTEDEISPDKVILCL
T4 sequence (Q16531 whole entry partner): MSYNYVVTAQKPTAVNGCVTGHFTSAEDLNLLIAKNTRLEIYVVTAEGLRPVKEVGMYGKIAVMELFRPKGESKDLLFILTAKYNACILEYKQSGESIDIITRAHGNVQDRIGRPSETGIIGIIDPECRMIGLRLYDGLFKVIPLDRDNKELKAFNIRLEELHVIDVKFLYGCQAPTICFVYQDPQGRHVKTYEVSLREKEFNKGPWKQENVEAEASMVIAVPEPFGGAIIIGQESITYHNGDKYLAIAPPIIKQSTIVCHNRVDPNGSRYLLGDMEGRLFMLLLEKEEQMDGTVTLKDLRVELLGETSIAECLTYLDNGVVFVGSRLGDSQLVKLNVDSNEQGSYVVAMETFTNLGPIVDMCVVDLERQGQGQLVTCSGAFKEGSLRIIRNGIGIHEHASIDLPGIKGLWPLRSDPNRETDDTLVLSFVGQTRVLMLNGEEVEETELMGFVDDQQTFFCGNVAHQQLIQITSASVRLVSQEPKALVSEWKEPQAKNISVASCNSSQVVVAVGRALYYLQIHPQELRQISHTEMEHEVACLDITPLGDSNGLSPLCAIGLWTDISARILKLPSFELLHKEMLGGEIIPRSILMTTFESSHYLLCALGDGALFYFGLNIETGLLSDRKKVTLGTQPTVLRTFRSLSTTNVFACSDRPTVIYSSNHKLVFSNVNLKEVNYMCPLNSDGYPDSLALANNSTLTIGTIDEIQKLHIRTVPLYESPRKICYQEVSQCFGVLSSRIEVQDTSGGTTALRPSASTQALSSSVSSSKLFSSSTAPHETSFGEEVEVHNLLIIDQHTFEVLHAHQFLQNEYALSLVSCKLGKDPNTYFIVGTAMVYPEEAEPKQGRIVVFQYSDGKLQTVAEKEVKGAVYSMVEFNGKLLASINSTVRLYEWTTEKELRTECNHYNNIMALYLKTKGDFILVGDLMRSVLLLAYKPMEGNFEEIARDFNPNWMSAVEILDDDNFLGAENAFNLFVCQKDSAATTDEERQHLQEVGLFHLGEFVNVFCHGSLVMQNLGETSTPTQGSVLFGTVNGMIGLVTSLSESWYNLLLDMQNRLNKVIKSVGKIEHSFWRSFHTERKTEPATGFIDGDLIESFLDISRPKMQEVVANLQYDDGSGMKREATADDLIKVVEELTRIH
The assay can be described thus: Western-blot assay, substrate protein degradation in hPBMCs: IKZF3. It counts as cell-based. The following applies: compounds at 50 nM and 500 nM, 24 hours.

For another assay, the target named is T5, CK1α (Homo sapiens, UniProt P48729+Q96SW2).
T5 construct: effects of the compounds of the present disclosure on the expression of target proteins in cells; endogenous in cells; host or cells: human PBMCs (hPBMCs)
T5 sequence (P48729 whole entry): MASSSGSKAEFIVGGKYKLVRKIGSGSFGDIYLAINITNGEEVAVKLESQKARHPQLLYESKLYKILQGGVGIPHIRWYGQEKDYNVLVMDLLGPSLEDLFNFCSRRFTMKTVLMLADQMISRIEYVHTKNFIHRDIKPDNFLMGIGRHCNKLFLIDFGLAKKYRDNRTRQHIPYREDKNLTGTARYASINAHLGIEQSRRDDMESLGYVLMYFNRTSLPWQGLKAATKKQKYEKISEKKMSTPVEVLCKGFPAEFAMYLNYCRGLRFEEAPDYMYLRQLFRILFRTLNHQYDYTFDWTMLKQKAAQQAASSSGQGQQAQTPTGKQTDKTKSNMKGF
T5 sequence (Q96SW2 whole entry): as the sequence (Q96SW2 whole entry) above
T5 sequence (Q16531 whole entry partner): as the sequence (Q16531 whole entry partner) above
The assay can be described thus: Western-blot assay, substrate protein degradation in hPBMCs: CK1α. It counts as cell-based. To be noted: compounds at 50 nM and 500 nM, 24 hours.

The target in a further assay is T6, GSPT1 (Homo sapiens, UniProt P15170+Q96SW2).
T6 construct: effects of the compounds of the present disclosure on the expression of target proteins in cells; endogenous in cells; host or cells: human PBMCs (hPBMCs)
T6 sequence (P15170 whole entry): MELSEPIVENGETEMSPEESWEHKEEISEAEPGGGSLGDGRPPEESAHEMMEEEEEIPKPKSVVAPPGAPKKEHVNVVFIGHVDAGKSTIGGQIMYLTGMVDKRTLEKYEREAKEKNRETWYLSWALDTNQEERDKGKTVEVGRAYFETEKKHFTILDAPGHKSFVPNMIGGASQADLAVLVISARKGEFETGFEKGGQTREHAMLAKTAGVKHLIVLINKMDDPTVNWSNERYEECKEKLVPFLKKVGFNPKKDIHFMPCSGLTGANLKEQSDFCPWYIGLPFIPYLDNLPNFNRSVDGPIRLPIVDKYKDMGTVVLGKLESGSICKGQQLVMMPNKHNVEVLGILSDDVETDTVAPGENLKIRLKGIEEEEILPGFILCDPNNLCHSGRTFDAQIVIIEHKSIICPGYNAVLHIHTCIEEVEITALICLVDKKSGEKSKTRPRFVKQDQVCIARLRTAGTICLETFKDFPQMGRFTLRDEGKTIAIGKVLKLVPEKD
T6 sequence (Q96SW2 whole entry): as the sequence (Q96SW2 whole entry) above
T6 sequence (Q16531 whole entry partner): as the sequence (Q16531 whole entry partner) above
The assay can be described thus: Western-blot assay, substrate protein degradation in hPBMCs: GSPT1. It counts as cell-based. To be noted: compounds at 50 nM and 500 nM, 24 hours.

Another assay relates to MM.1S. The assay can be described thus: Cell viability assay (CellTiter-Meiluncell Luminescent), tumor cell proliferation, MM.1S. To be noted: Homo sapiens, MM1.S, 96 h, read-out: inhibitory activity (IC50, nM) against tumor cells proliferation, MM.1S.
The next assay relates to MGC803. The assay can be described thus: Cell viability assay (CellTiter-Meiluncell Luminescent), tumor cell proliferation, MGC803. To be noted: Homo sapiens, MGC-803, 96 h, read-out: inhibitory activity (IC50, nM) against tumor cells proliferation, MGC803.
The next assay has as its system Jurkat. The assay can be described thus: Cell viability assay (CellTiter-Meiluncell Luminescent), tumor cell proliferation, Jurkat. To be noted: Homo sapiens, 96 h, read-out: inhibitory activity (IC50, nM) against tumor cells proliferation, Jurkat.

Each structure is given as a SMILES string.

T3 sequence (Q9UKS7 whole entry): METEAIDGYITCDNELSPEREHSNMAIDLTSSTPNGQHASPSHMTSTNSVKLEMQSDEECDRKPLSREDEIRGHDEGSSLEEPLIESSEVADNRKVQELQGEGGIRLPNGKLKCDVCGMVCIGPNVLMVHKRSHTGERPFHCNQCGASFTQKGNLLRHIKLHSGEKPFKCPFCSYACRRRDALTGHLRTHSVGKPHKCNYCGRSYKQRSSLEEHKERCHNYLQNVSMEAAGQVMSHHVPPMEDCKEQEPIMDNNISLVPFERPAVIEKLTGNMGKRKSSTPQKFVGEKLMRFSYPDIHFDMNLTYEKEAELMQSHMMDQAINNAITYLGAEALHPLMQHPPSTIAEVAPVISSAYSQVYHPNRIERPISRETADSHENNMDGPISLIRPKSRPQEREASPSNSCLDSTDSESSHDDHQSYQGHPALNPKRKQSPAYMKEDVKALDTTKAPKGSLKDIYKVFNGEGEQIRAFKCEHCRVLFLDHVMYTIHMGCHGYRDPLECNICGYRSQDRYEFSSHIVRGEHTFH
T3 sequence (Q96SW2 whole entry): as the sequence (Q96SW2 whole entry) above
T3 sequence (Q16531 whole entry partner): as the sequence (Q16531 whole entry partner) above
T1 sequence (P30291 whole entry): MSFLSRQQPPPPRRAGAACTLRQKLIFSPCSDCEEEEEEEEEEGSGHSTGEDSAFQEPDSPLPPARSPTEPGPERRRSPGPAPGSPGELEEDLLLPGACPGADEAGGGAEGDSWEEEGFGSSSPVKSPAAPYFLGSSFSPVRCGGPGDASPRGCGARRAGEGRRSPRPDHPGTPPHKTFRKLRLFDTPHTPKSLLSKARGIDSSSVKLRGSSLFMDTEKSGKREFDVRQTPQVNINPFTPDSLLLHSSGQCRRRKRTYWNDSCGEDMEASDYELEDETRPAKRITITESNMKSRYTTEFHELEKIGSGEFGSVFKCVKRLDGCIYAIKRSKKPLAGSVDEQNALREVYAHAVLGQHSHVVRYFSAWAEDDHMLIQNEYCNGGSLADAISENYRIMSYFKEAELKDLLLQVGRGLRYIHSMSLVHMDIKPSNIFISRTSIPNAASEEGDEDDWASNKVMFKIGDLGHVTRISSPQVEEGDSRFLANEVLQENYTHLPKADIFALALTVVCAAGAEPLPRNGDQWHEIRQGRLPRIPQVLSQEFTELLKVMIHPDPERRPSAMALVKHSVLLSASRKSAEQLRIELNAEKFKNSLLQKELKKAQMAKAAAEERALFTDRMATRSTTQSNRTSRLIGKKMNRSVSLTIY
T1 sequence (Q96SW2 whole entry): as the sequence (Q96SW2 whole entry) above
T1 sequence (Q16531 whole entry partner): as the sequence (Q16531 whole entry partner) above
Experimental for Jurkat: (§1) On the following day, the test compounds of the present disclosure were subjected to serial dilution. […] Subsequently, 0.5 µL of the test compound dilution was transferred into the 96-well plate containing the cells, with each well containing 100 µL of cell culture medium. […] Into the 96-well plate, the diluted test compounds and corresponding detection reagents were added, resulting in final test compound concentrations of 500 nM and 10 nM, respectively.
(§2) After the cells were treated with the compounds of the present disclosure for a specified period, the cell viability assay reagent was added to the culture medium according to the kit's instructions to determine cell viability. […] All controls were treated using the same procedure as the compounds of the present disclosure. The growth inhibition curves for the compounds of the present disclosure were plotted using Prism GraphPad software, and the IC50 values were calculated therefrom.
Experimental for MGC803: as §1, §2
Experimental for MM.1S: The tumor cells used herein were cultured in a cell culture medium listed in table 2 at 37°C in an incubator with 5% CO2. Prior to experimentation, all cell lines used were correctly identified by STR profiling, and tested negative for mycoplasma contamination using a mycoplasma detection kit through routine screenings.
On the following day, the test compounds of the present disclosure were subjected to serial dilution. […] Subsequently, 0.5 µL of the test compound dilution was transferred into the 96-well plate containing the cells, with each well containing 100 µL of cell culture medium. […] Into the 96-well plate, the diluted test compounds and corresponding detection reagents were added, resulting in final test compound concentrations of 500 nM and 10 nM, respectively. The experimental procedure is described below using the diluted 2 µM test compound as an example.
as §2

Regarding `O=C1CCN(N2Cc3cc(CN4CCC(N(c5ccccc5)c5ccccn5)CC4)ccc3C2=O)C(=O)N1` [GT-04940, 1-(1-oxo-5-((4-(phenyl(pyridin-2-yl)amino)piperidin-1-yl)methyl)isoindolin-2-yl)dihydropyrimidine-2,4(1H,3H)-dione], on WEE1, the “WEE1 substrate protein remaining %” value was “A ("A" is defined as 0% ≤ substrate protein remaining % ≤ 80%)”. At IKZF1, the “IKZF1 substrate protein remaining %” value is reported as “A ("A" is defined as 0% ≤ substrate protein remaining % ≤ 80%)”. Moreover, the “IKZF2 substrate protein remaining %” value on IKZF2 is on record as “A ("A" is defined as 0% ≤ substrate protein remaining % ≤ 80%)”. Also, on IKZF3, the “IKZF3 substrate protein remaining %” value is “A ("A" is defined as 0% ≤ substrate protein remaining % ≤ 80%)”. Moreover, the “CK1α substrate protein remaining %” value on CK1α is given as “A ("A" is defined as 0% ≤ substrate protein remaining % ≤ 80%)”. For the same compound, the “GSPT1 substrate protein remaining %” value on GSPT1 is reported as “A ("A" is defined as 0% ≤ substrate protein remaining % ≤ 80%)”. For the same compound, the IC50 was in the range of 50 to 100 nM in the assay on MM.1S, 100 to 300 nM in the assay with MGC803 and 100 to 300 nM with Jurkat.
Take `O=C1CCN(N2Cc3cc(CN4CCC(Nc5ccccc5-c5ccc(Cl)cc5)CC4)ccc3C2=O)C(=O)N1` [GT-04943, 1-(5-((4-((4'-chloro-[1,1'-biphenyl]-2-yl)amino)piperidin-1-yl)methyl)-1-oxoisoindolin-2-yl)dihydropyrimidine-2,4(1H,3H)-dione]: the “WEE1 substrate protein remaining %” value at WEE1 is listed as “A ("A" is defined as 0% ≤ substrate protein remaining % ≤ 80%)”. On IKZF1, the “IKZF1 substrate protein remaining %” value is recorded as “A ("A" is defined as 0% ≤ substrate protein remaining % ≤ 80%)”. For the same compound, the “IKZF2 substrate protein remaining %” value at IKZF2 is given as “A ("A" is defined as 0% ≤ substrate protein remaining % ≤ 80%)”. On IKZF3, the “IKZF3 substrate protein remaining %” value was “A ("A" is defined as 0% ≤ substrate protein remaining % ≤ 80%)”. In addition, the “CK1α substrate protein remaining %” value at CK1α is “B ("B" is defined as 80%< substrate protein remaining %≤ 100%)”. The “GSPT1 substrate protein remaining %” value at GSPT1 is “A ("A" is defined as 0% ≤ substrate protein remaining % ≤ 80%)”. The IC50 in the assay on MM.1S is 10 to 50 nM; in the assay on MGC803, 100 to 300 nM; with Jurkat, 100 to 300 nM.
